Laboratory results taken from patent US7371766B2, “Curcumin analogs with anti-tumor and anti-angiogenic properties” (Emory University, priority 1999, dated 2008).

Columns and labels:
[1] = system: HL-60 (TB); conditions: read-out: Median Growth Inhibitory Concentration (GI50), Leukemia, 48 hours
[2] = system: K-562; conditions: read-out: Median Growth Inhibitory Concentration (GI50); K-562, Leukemia; 48 hours
[3] = system: MOLT-4; conditions: read-out: Median Growth Inhibitory Concentration (GI50); MOLT-4, Leukemia; 48 hours
[4] = system: RPMI-8226; conditions: read-out: Median Growth Inhibitory Concentration (GI50); RPMI-8226, Leukemia; 48 hours
[5] = system: A549; conditions: read-out: Median Growth Inhibitory Concentration (GI50); A549, Non-Small Cell Lung Cancer; 48 hours
[6] = system: HOP-62; conditions: read-out: Median Growth Inhibitory Concentration (GI50); HOP-62, Non-Small Cell Lung Cancer; 48 hours
[7] = system: HOP-92; conditions: read-out: Median Growth Inhibitory Concentration (GI50); HOP-92, Non-Small Cell Lung Cancer; 48 hours
[8] = system: NCI-H226; conditions: read-out: Median Growth Inhibitory Concentration (GI50); NCI-H226, Non-Small Cell Lung Cancer; 48 hours
[9] = system: NCI-H522; conditions: read-out: Median Growth Inhibitory Concentration (GI50); NCI-H522, Non-Small Cell Lung Cancer; 48 hours
[10] = system: COLO 205; conditions: read-out: Median Growth Inhibitory Concentration (GI50); COLO 205, Colon Cancer; 48 hours
[11] = system: HCT-116; conditions: read-out: Median Growth Inhibitory Concentration (GI50); HCT-116, Colon Cancer; 48 hours
[12] = system: HT29; conditions: read-out: Median Growth Inhibitory Concentration (GI50); HT29, Colon Cancer; 48 hours
[13] = system: SF-295; conditions: read-out: Median Growth Inhibitory Concentration (GI50); SF-295, CNS Cancer; 48 hours
[14] = system: U251; conditions: read-out: Median Growth Inhibitory Concentration (GI50); U251, CNS Cancer; 48 hours
[15] = system: LOX IMVI; conditions: read-out: Median Growth Inhibitory Concentration (GI50), Melanoma, 48 hours
[16] = system: SK-MEL-2; conditions: read-out: Median Growth Inhibitory Concentration (GI50); SK-MEL-2, Melanoma; 48 hours
[17] = system: SK-MEL-28; conditions: read-out: Median Growth Inhibitory Concentration (GI50); SK-MEL-28, Melanoma; 48 hours
[18] = system: 786-0; conditions: read-out: Median Growth Inhibitory Concentration (GI50); 786-0, Renal Cancer; 48 hours
[19] = system: CAKI-1; conditions: read-out: Median Growth Inhibitory Concentration (GI50); CAKI-1, Renal Cancer; 48 hours
[20] = system: RXF 393; conditions: read-out: Median Growth Inhibitory Concentration (GI50); RXF 393, Renal Cancer; 48 hours
[21] = system: SN12C; conditions: read-out: Median Growth Inhibitory Concentration (GI50), Renal Cancer, 48 hours
[22] = system: TK-10; conditions: read-out: Median Growth Inhibitory Concentration (GI50); TK-10, Renal Cancer; 48 hours
[23] = system: PC-3; conditions: read-out: Median Growth Inhibitory Concentration (GI50); PC-3, Prostate Cancer; 48 hours
[24] = system: DU-145; conditions: read-out: Median Growth Inhibitory Concentration (GI50); DU-145, Prostate Cancer; 48 hours
[25] = system: MCF-7; conditions: read-out: Median Growth Inhibitory Concentration (GI50); MCF-7, Breast Cancer; 48 hours
[26] = system: HS 578T; conditions: read-out: Median Growth Inhibitory Concentration (GI50), Breast Cancer, 48 hours
[27] = system: MDA-MB-435; conditions: read-out: Median Growth Inhibitory Concentration (GI50); MDA-MB-435, Breast Cancer; 48 hours

| Molecule | GI50 [1] | GI50 [2] | GI50 [3] | GI50 [4] | GI50 [5] | GI50 [6] | GI50 [7] | GI50 [8] | GI50 [9] | GI50 [10] | GI50 [11] | GI50 [12] | GI50 [13] | GI50 [14] | GI50 [15] | GI50 [16] | GI50 [17] | GI50 [18] | GI50 [19] | GI50 [20] | further results |
| --- | --- | --- | --- | --- | --- | --- | --- | --- | --- | --- | --- | --- | --- | --- | --- | --- | --- | --- | --- | --- | --- |
| 3,5-Bis(2-hydroxybenzylidene)-sulfone [EF11] | 21.3 µM | 27.4 µM | 19.7 µM | 18.2 µM | 38.7 µM | 83.3 µM | 23.5 µM | > 100 µM | 33.3 µM | 39.6 µM | 36.8 µM | 45.9 µM | 53.8 µM | 35.7 µM | 40.3 µM | 24 µM | 42.5 µM | 41.3 µM | 29.2 µM | 39 µM | GI50 [21]: 34.2 µM; GI50 [22]: 41.2 µM; GI50 [23]: 34.9 µM; GI50 [24]: 29.9 µM; GI50 [25]: 28.7 µM; GI50 [26]: 52.1 µM; GI50 [27]: 31.4 µM |
| N.N.[Cl][Pt][Cl] [Cisplatin, reference compound] | 0.1 µM | 1 µM | 0.3 µM | 0.5 µM | 0.8 µM | 0.3 µM | 0.6 µM | 0.8 µM | 0.8 µM | 4 µM | 1.3 µM | 1.3 µM | 0.3 µM | 0.4 µM | 0.3 µM | 1.3 µM | 0.8 µM | 0.3 µM | 0.3 µM | 0.8 µM | GI50 [21]: 1 µM; GI50 [22]: 1.3 µM; GI50 [23]: 1.6 µM; GI50 [24]: 0.4 µM; GI50 [25]: 0.4 µM; GI50 [26]: 1.3 µM; GI50 [27]: 1.6 µM |
